According to patent US12528777B2, “Quinazolinones derivatives for treatment of non-alcoholic fatty liver disease, preparation and use thereof” (Council of Scientific and Industrial Research, priority 2020, dated 2026):
“Also recorded” adds a separate entry of the source. Values belong to the compound of their own block, whether it stands above or below them.

Columns and labels:
Plasma stability assay = format: in vitro ADME, human; conditions: for Mean % remaining at 2 hrs in human Plasma: 1 μM, 37° C., 120 min, LC-MS/MS; for Plasma stability: human plasma, after 2 hours, with respect to Propantheline
Method: 1 mM Stock of test compound was prepared from 10 mM initial stock solution of compounds by diluting 10 μL of 10 mM stock with 90 μL of DMSO. Then 10 μL of 1 mM stock was diluted with 90 µL of DMSO to give 100 μM concentration. The frozen plasma was thawed at room temperature and centrifuged at 1400 rpm at 4° C., for 15 minutes. Approximately […] of the clear supernatant fraction was transferred to a separate tube and was used for the assay. Final working stock of 1 μM was prepared by diluting 3 μL of 100 μM with 297 μL of plasma. Plasma containing the test compound was incubated for 120 min at 37° C. in shaker with 500 rpm. 50 μL of aliquot of sample at 0, 15, 30, 60 and 120 minutes were precipitated with 150 μL of acetonitrile containing internal standard and centrifuged at 4000 rpm at 4° C. for 20 minutes. 120 μL of supernatant was diluted with 120 μL of water and analyzed by LC-MS/MS.

HepG2 cells = experiment: Confocal microscopy: lipid droplets in oleate induced HepG2 cells; format: cell-based; design: key to Reduction in Lipid Droplets: + = slight or in insignificant; ++ = Moderate; +++ and ++++ = active; +++ and ++++ = active; +++++ = very active; conditions: for Number of lipid droplets: HepG2 cells, 250 μM oleate induction; for Reduction in Lipid Droplets: oleate induced HepG2 cells, score
How it was run: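 HepG2 cells were loaded with 250 μM oleate and given compound in DMSO (10 μM screen; 10 nM–5 μM dose series) for 24 h; BSA as negative control. Lipid droplets stained with BODIPY/Hoechst, imaged confocally; mean droplets per cell counted over ~20 cells versus oleate-only cells.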

ATGL = experiment: Western blot of ATGL level in HepG2 cells; format: cell-based; design: key to Increase in ATGL level: + = slight or in insignificant; ++ = Moderate; +++ and ++++ = active; +++ and ++++ = active; +++++ = very active; conditions: for Increase in ATGL level: HepG2 cells, score; for Increase in ATGL level / ATGL level in HepG2 cells: western blot; for ATGL level in HepG2 cells: 24 hours, 10 μM screening or 50 nM-5 μM dose dependent; for EC50: fold increase of ATGL by densitometry, as % of 1.6 fold maximum with siCOP1, doses 10-5000 nM, read-out: EC50 (in-vitro)
How it was run: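 HepG2 cells were treated with compound 24 h (10 μM screen; 50 nM–5 μM dose series) and lysed. 30 μg protein was western blotted for ATGL, with actin as loading reference. ATGL increase was expressed as percent of the 1.6-fold siCOP1 maximum and plotted against log concentration for EC50.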

Compound: COCCn1cnc2ccc(NC(=O)Nc3cccc(C(C)=O)c3)cc2c1=O [Compound 9, 1-(3-acetylphenyl)-3-(3-(2-methoxyethyl)-4-oxo-3,4-dihydroquinazolin-6-yl)urea]
Mean % remaining at 2 hrs in human Plasma (Plasma stability assay): 16.9%
Plasma stability (Plasma stability assay): lower plasma stability
Number of lipid droplets (HepG2 cells): decrease in the number of lipid droplets
Reduction in Lipid Droplets (HepG2 cells): ++++
Increase in ATGL level (ATGL): +++++
ATGL level in HepG2 cells (ATGL): increased ATGL level

Compound: COCC(C)n1cnc2ccc(NC(=O)Nc3cccc(C(C)=O)c3)cc2c1=O (stereo not shown) [Compound 179, 1-(3-acetylphenyl)-3-(3-(1-methoxypropan-2-yl)-4-oxo-3,4-dihydroquinazolin-6-yl)urea]
Mean % remaining at 2 hrs in human Plasma (Plasma stability assay): 20.6%
Plasma stability (Plasma stability assay): lower plasma stability
Increase in ATGL level (ATGL): +++++

Compound: COCCn1c(C)nc2ccc(NC(=O)Nc3cccc(C(C)=O)c3)cc2c1=O [Compound 107, 1-(3-acetylphenyl)-3-(3-(2-methoxyethyl)-2-methyl-4-oxo-3,4-dihydroquinazolin-6-yl)urea]
Reduction in Lipid Droplets (HepG2 cells): ++++
Increase in ATGL level (ATGL): ++++

Compound: CC(=O)c1cccc(NC(=O)Nc2ccc3ncn(CCCN4CCOCC4)c(=O)c3c2)c1 [Compound 139, 1-(3-acetylphenyl)-3-(3-(3-morpholinopropyl)-4-oxo-3,4-dihydroquinazolin-6-yl)urea]
Mean % remaining at 2 hrs in human Plasma (Plasma stability assay): 55.50%
Plasma stability (Plasma stability assay): good plasma stability
Number of lipid droplets (HepG2 cells): reduction in lipid droplets
Reduction in Lipid Droplets (HepG2 cells): +++
Increase in ATGL level (ATGL): +++
EC50 (ATGL): 0.00119 µM
ATGL level in HepG2 cells (ATGL): increased ATGL level; also recorded: some sort of increase in ATGL level

Now from value to compound, other results behind:

Mean % remaining at 2 hrs in human Plasma (Plasma stability assay): 73.9%
Plasma stability (Plasma stability assay): good plasma stability
EC50 (ATGL): 0.0295 µM
Compound: COCCn1c(-c2ccncc2)nc2ccc(NC(=O)Nc3cccc(C(C)=O)c3)cc2c1=O [Compound 219, 1-(3-acetylphenyl)-3-(3-(2-methoxyethyl)-4-oxo-2-(pyridin-4-yl)-3,4-dihydroquinazolin-6-yl)urea]
ATGL level in HepG2 cells (ATGL): increased ATGL level

Mean % remaining at 2 hrs in human Plasma (Plasma stability assay): 80.70%
Plasma stability (Plasma stability assay): good plasma stability
EC50 (ATGL): 0.0302 µM
Compound: COCCn1c(-c2cccnc2)nc2ccc(NC(=O)Nc3cccc(C(C)=O)c3)cc2c1=O [Compound 215, 1-(3-acetylphenyl)-3-(3-(2-methoxyethyl)-4-oxo-2-(pyridin-3-yl)-3,4-dihydroquinazolin-6-yl)urea]
ATGL level in HepG2 cells (ATGL): increased ATGL level

Mean % remaining at 2 hrs in human Plasma (Plasma stability assay): 98.1%
Plasma stability (Plasma stability assay): good plasma stability
EC50 (ATGL): 0.00102 µM
Compound: COCCn1c(CN2CCCCC2)nc2ccc(NC(=O)Nc3cccc(C(C)=O)c3)cc2c1=O [Compound 238, 1-(3-acetylphenyl)-3-(3-(2-methoxyethyl)-4-oxo-2-(piperidin-1-ylmethyl)-3,4-dihydroquinazolin-6-yl)urea]
Increase in ATGL level (ATGL): +++++
ATGL level in HepG2 cells (ATGL): increased ATGL level; also recorded: most potent in increasing ATGL and COP1 levels; also recorded: increase in ATGL and COP1 levels
